Laboratory results: patent US10517889B2, “Modulators of SMAD7 expression” (Ionis Pharmaceuticals, Inc., priority 2017, dated 2019)
Strand notation (5' to 3'): a small letter for the sugar, then the base; units joined by * are phosphorothioate-linked, units joined directly phosphodiester-linked; [ ] holds rarer units or linkages, { } end groups; capitals alone tell only the bases. k = constrained ethyl (cEt); [5mC] = 5-methylcytosine; d = 2'-deoxy (DNA)

Test system: human SMAD7 mRNA
Test: Antisense inhibition of human SMAD7 mRNA expression in Hep3B cells by 3-10-3 cEt gapmers, 10,000 nM, electroporation (Example 2)
Format: cell-based
Conditions: approximately 24 hours
Procedure, shortened: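 qRT-PCR (RTS5062) of SMAD7 mRNA, normalised to RIBOGREEN total RNA, gave percent inhibition relative to untreated controls. Hep3B cells at 20,000 per well received 10,000 nM oligonucleotide by electroporation, with ~24 h treatment.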

[1] = Hep3B cells, electroporation with 10,000 nM antisense oligonucleotide, primer probe set RTS5062, relative to untreated control cells
[2] = Hep3B cells, electroporation with 10,000 nM antisense oligonucleotide, RTS5062, percent inhibition of SMAD7 mRNA relative to untreated control cells
[3] = SMAD7 mRNA, Hep3B cells, electroporation with 10,000 nM antisense oligonucleotide, primer probe set RTS5062, relative to untreated control cells
[4] = Hep3B cells, electroporation with 10,000 nM antisense oligonucleotide, SMAD7 mRNA by RT-PCR (RTS5062), relative to untreated control cells
[5] = Hep3B cells, 10,000 nM antisense oligonucleotide, electroporation, RT-PCR primer probe set RTS5062, relative to untreated control cells
[6] = Hep3B cells, electroporation, 10,000 nM antisense oligonucleotide, RTS5062, relative to untreated control cells
[7] = SMAD7 mRNA, Hep3B cells, 10,000 nM antisense oligonucleotide, electroporation, primer probe set RTS5062, relative to untreated control cells

Q: For “799189 (antisense kA*kA*kT*dG*d[5mC]*dT*dT*d[5mC]*dT*d[5mC]*dT*dT*dG*kT*kT*k[5mC]) [compound 799189]”, which “% inhibition of SMAD7 mRNA expression” value [1] is on record?
A: The value was 33%.

Q: With “799317 (antisense kT*kA*kA*dA*dA*dA*d[5mC]*dA*d[5mC]*d[5mC]*dA*dA*dG*kA*kT*k[5mC]) [compound 799317]” as the substance, how does the “% Inhibition” value [2] read?
A: The value was 0%.

Q: Which “% Inhibition” value [3] does the source give for “829846 (antisense kG*kT*k[5mC]*d[5mC]*dG*dA*dA*dT*dT*dG*dA*dG*d[5mC]*kT*kG*kT) [compound 829846]” here?
A: The value was 29%.

Q: Which “% Inhibition” value [3] does the source give for “829836 (k[5mC]*k[5mC]*kA*dG*dT*dG*dT*dG*dA*d[5mC]*d[5mC]*dG*dA*kT*k[5mC]*k[5mC]; antisense) [compound 829836]” here?
A: The value was 48%.

Q: Which “% Inhibition” value [4] does the source give for “798920 (kG*k[5mC]*k[5mC]*dT*dG*d[5mC]*dT*d[5mC]*dA*dG*d[5mC]*dT*d[5mC]*kA*k[5mC]*kG; antisense) [compound 798920]” here?
A: Its value is 58%.

Q: Which “% Inhibition” value [5] does the source give for “798925 (kA*kG*kT*dA*dG*dT*dT*dT*dG*dA*dA*dG*dT*kG*kT*kG; antisense) [compound 798925]” here?
A: The value was 0%.

Q: Which “% Inhibition” value [3] does the source give for “829987 (k[5mC]*k[5mC]*kG*d[5mC]*dG*dA*dG*dG*d[5mC]*dG*dG*dT*dG*kA*kT*kT; antisense) [compound 829987]” here?
A: Its value is 6%.

Q: “798813 (k[5mC]*k[5mC]*kG*dA*dT*d[5mC]*d[5mC]*d[5mC]*d[5mC]*dA*dG*dG*d[5mC]*kT*k[5mC]*k[5mC]; antisense) [compound 798813]” was tested. Which “% Inhibition” value [4] did it give?
A: The value was 23%.

Q: “799915 (antisense kG*k[5mC]*kT*dG*dA*d[5mC]*dG*d[5mC]*dG*dG*d[5mC]*dT*dT*k[5mC]*k[5mC]*kT) [compound 799915]” was tested. Which “% Inhibition” value [5] did it give?
A: Its value is 52%.

Q: For “798958 (antisense kA*kA*k[5mC]*dA*dA*dT*dT*d[5mC]*dT*dT*dT*dT*d[5mC]*kA*kT*kA) [compound 798958]”, which “% Inhibition” value [1] is on record?
A: The value was 0%.

Q: “798693 (antisense kG*k[5mC]*k[5mC]*dG*dG*dG*d[5mC]*dG*d[5mC]*dA*d[5mC]*dG*dG*k[5mC]*kT*k[5mC]) [compound 798693]” was tested. Which “% Inhibition” value [4] did it give?
A: Its value is 0%.

Q: With “830188 (antisense k[5mC]*k[5mC]*kA*d[5mC]*dT*dT*dA*dG*d[5mC]*dA*dA*dG*dG*kA*kG*k[5mC]) [compound 830188]” as the substance, how does the “% Inhibition” value [4] read?
A: The value was 50%.

Q: Which “% Inhibition” value [5] does the source give for “799856 (kG*k[5mC]*kA*dA*dG*d[5mC]*d[5mC]*dA*dA*dG*dT*dG*dT*k[5mC]*k[5mC]*kA; antisense) [compound 799856]” here?
A: The value was 43%.

Q: How did the “% inhibition of SMAD7 mRNA expression” value [6] turn out when “799270 (antisense kA*kG*kT*d[5mC]*dA*dG*dG*d[5mC]*dT*d[5mC]*dA*dA*dT*kG*kA*kG) [compound 799270]” was run?
A: Its value is 16%.

Q: For “799513 (antisense kT*kA*k[5mC]*d[5mC]*dT*dT*dT*dA*dG*dA*dT*dT*dG*k[5mC]*kA*kT) [compound 799513]”, which “% Inhibition” value [4] is on record?
A: The value was 66%.

Q: How did the “% Inhibition” value [1] turn out when “799041 (kG*kG*k[5mC]*dA*dG*d[5mC]*dT*dG*d[5mC]*dT*dG*dG*dG*kA*k[5mC]*k[5mC]; antisense) [compound 799041]” was run?
A: The value was 22%.

Q: “799936 (antisense k[5mC]*kT*kT*dT*dA*dA*dT*dT*dT*d[5mC]*dA*dG*dA*kG*kT*k[5mC]) [compound 799936]” was tested. Which “% Inhibition” value [5] did it give?
A: Its value is 44%.

Q: For “829785 (antisense kA*kT*kG*d[5mC]*d[5mC]*dT*dG*dA*dG*dA*dT*d[5mC]*d[5mC]*kG*kG*k[5mC]) [compound 829785]”, which “% Inhibition” value [7] is on record?
A: Its value is 27%.

Q: “799099 (antisense kA*kA*kA*dA*dA*d[5mC]*d[5mC]*dT*dG*dA*dT*dG*dT*k[5mC]*kA*k[5mC]) [compound 799099]” was tested. Which “% Inhibition” value [1] did it give?
A: Its value is 44%.

Q: “799939 (antisense kG*k[5mC]*kA*dT*dT*dT*dA*dA*dT*dT*dT*dG*d[5mC]*kA*kA*k[5mC]) [compound 799939]” was tested. Which “% Inhibition” value [5] did it give?
A: The value was 38%.

Q: For “800056 (antisense kT*kG*k[5mC]*dT*dA*dA*dT*dA*dA*dA*d[5mC]*dT*dT*kG*kT*kG) [compound 800056]”, which “% Inhibition” value [5] is on record?
A: Its value is 7%.

Q: Which “% inhibition of SMAD7 mRNA expression” value [6] does the source give for “799517 (antisense k[5mC]*kT*kT*dA*dA*dG*dT*dA*dG*dA*dG*d[5mC]*dA*kA*kA*kG) [compound 799517]” here?
A: Its value is 0%.

Q: Which “% Inhibition” value [5] does the source give for “799999 (kT*kT*kA*dG*dG*dA*dA*d[5mC]*dA*dA*dG*dG*dG*k[5mC]*kA*kA; antisense) [compound 799999]” here?
A: The value was 23%.

Q: With “799470 (antisense kA*kA*kA*dA*dG*d[5mC]*dT*d[5mC]*d[5mC]*dG*d[5mC]*dA*dT*kA*kG*kA) [compound 799470]” as the substance, how does the “% Inhibition” value [4] read?
A: Its value is 10%.

Q: Which “% Inhibition” value [2] does the source give for “790715 (kT*kG*kT*d[5mC]*dA*d[5mC]*d[5mC]*d[5mC]*dG*dT*d[5mC]*dT*dG*kG*kG*k[5mC]; antisense) [compound 790715]” here?
A: Its value is 16%.

Q: How did the “% Inhibition” value [5] turn out when “799873 (kA*kA*kA*dA*dG*dT*dT*dA*dA*dT*d[5mC]*dA*dT*kT*kA*k[5mC]; antisense) [compound 799873]” was run?
A: The value was 0%.

Q: For “799750 (antisense kA*kG*k[5mC]*d[5mC]*dA*dA*dG*dA*dG*d[5mC]*dT*dG*d[5mC]*kT*kT*kG) [compound 799750]”, which “% Inhibition” value [2] is on record?
A: The value was 0%.

Q: “830087 (kT*kT*kT*dT*dA*d[5mC]*dA*dG*dG*dA*dT*dA*d[5mC]*kA*k[5mC]*kT; antisense) [compound 830087]” was tested. Which “% Inhibition” value [4] did it give?
A: Its value is 35%.

Q: “800053 (antisense k[5mC]*kT*kA*d[5mC]*dA*d[5mC]*d[5mC]*dA*dA*dA*dG*dA*d[5mC]*k[5mC]*kT*kG) [compound 800053]” was tested. Which “% Inhibition” value [5] did it give?
A: The value was 63%.

Q: With “798751 (k[5mC]*k[5mC]*kG*dG*dG*d[5mC]*dA*dG*d[5mC]*dA*dG*dG*dA*kG*kG*k[5mC]; antisense) [compound 798751]” as the substance, how does the “% Inhibition” value [4] read?
A: Its value is 0%.

Q: “799213 (kT*kG*kT*dT*dT*dA*dT*dA*d[5mC]*dA*d[5mC]*dA*dT*kT*kG*k[5mC]; antisense) [compound 799213]” was tested. Which “% inhibition of SMAD7 mRNA expression” value [1] did it give?
A: Its value is 42%.

Q: How did the “% Inhibition” value [1] turn out when “772692 (kA*kA*kA*dG*d[5mC]*dA*d[5mC]*dT*dA*d[5mC]*dA*dA*dT*kG*k[5mC]*kT; antisense) [compound 772692]” was run?
A: The value was 19%.

Q: For “799653 (antisense kA*k[5mC]*k[5mC]*d[5mC]*dA*d[5mC]*dT*d[5mC]*dA*dA*dA*d[5mC]*d[5mC]*kA*kG*kG) [compound 799653]”, which “% inhibition of SMAD7 mRNA expression” value [6] is on record?
A: The value was 51%.

Q: How did the “% Inhibition” value [4] turn out when “798782 (kT*kG*k[5mC]*dA*dG*d[5mC]*dA*d[5mC]*dA*d[5mC]*d[5mC]*dA*dG*k[5mC]*kT*k[5mC]; antisense) [compound 798782]” was run?
A: The value was 51%.

Q: How did the “% inhibition of SMAD7 mRNA expression” value [1] turn out when “799484 (antisense k[5mC]*kG*k[5mC]*d[5mC]*dA*d[5mC]*d[5mC]*dT*dT*dT*dG*dG*d[5mC]*kT*kG*kG) [compound 799484]” was run?
A: Its value is 0%.

Q: For “830023 (antisense kT*k[5mC]*kA*d[5mC]*dA*dT*dG*d[5mC]*dT*dT*dT*dG*d[5mC]*kG*kG*kG) [compound 830023]”, which “% Inhibition” value [4] is on record?
A: Its value is 57%.

Q: Which “% Inhibition” value [5] does the source give for “799838 (antisense kT*kT*kG*d[5mC]*dA*d[5mC]*d[5mC]*d[5mC]*d[5mC]*d[5mC]*dA*dT*dA*kA*k[5mC]*kT) [compound 799838]” here?
A: The value was 2%.

Q: “798683 (antisense kG*k[5mC]*k[5mC]*dT*dG*d[5mC]*dT*dA*dA*dG*dG*dA*dG*k[5mC]*kG*kA) [compound 798683]” was tested. Which “% Inhibition” value [4] did it give?
A: The value was 51%.

Q: “829918 (antisense kG*kA*kG*dT*dG*dT*dA*dT*dG*dA*dG*dT*dT*kG*kT*kA) [compound 829918]” was tested. Which “% Inhibition” value [3] did it give?
A: Its value is 53%.

Q: For “798860 (kT*kG*kG*d[5mC]*dG*dG*dA*d[5mC]*dT*dT*dG*dA*dT*kG*kA*kA; antisense) [compound 798860]”, which “% Inhibition” value [5] is on record?
A: Its value is 22%.

Q: For “829790 (k[5mC]*k[5mC]*k[5mC]*dG*dT*dA*dA*dG*dA*dT*dT*d[5mC]*dA*k[5mC]*kA*kG; antisense) [compound 829790]”, which “% Inhibition” value [7] is on record?
A: The value was 51%.

Q: “799532 (kG*k[5mC]*kA*dG*dA*dA*dG*dG*d[5mC]*d[5mC]*dA*d[5mC]*d[5mC]*k[5mC]*k[5mC]*k[5mC]; antisense) [compound 799532]” was tested. Which “% Inhibition” value [2] did it give?
A: Its value is 21%.

Q: For “801003 (antisense kG*kA*kA*dT*d[5mC]*dA*dA*dG*d[5mC]*d[5mC]*d[5mC]*dT*dG*kG*k[5mC]*kT) [compound 801003]”, which “% Inhibition” value [7] is on record?
A: The value was 38%.

Q: How did the “% Inhibition” value [3] turn out when “829814 (kG*kT*k[5mC]*dT*dG*d[5mC]*dA*dG*dT*dT*dG*dG*dT*kT*kT*kG; antisense) [compound 829814]” was run?
A: The value was 94%.

Q: With “829774 (antisense kA*kG*kT*dA*dG*dG*dA*d[5mC]*dG*dA*dG*dG*dG*k[5mC]*kG*kG) [compound 829774]” as the substance, how does the “% Inhibition” value [7] read?
A: The value was 22%.

Q: “790775 (kT*kA*k[5mC]*dA*dA*dG*dG*dT*dG*dA*dA*dA*dG*kT*kT*kA; antisense) [compound 790775]” was tested. Which “% Inhibition” value [7] did it give?
A: Its value is 7%.

Q: How did the “% Inhibition” value [4] turn out when “798716 (antisense k[5mC]*k[5mC]*kT*dG*d[5mC]*d[5mC]*d[5mC]*dG*dG*dG*d[5mC]*d[5mC]*dG*k[5mC]*k[5mC]*kG) [compound 798716]” was run?
A: The value was 0%.
